Data set [1] has as its system Staphylococcus aureus. Nature of the data set: Antibacterial activity against methicillin-resistant Staphylococcus aureus CCARM 3114 after 20 hrs by twofold serial broth dilution method. The format is functional. The settings on record: CCARM 3114, 20 h. On the technique in general: Dilution methods test growth across graded concentrations, often in twofold steps.
Data set [2] concerns Enterococcus faecalis. Nature of the data set: Antibacterial activity against Enterococcus faecalis KCTC 2011 after 20 hrs by twofold serial broth dilution method. The format is functional. Particulars: KCTC 2011, 20 h; call rule not given here.
Data set [3] concerns Staphylococcus aureus. Kind of data set: Antibacterial activity against Staphylococcus aureus KCTC 1621 after 20 hrs by twofold serial broth dilution method. The settings on record: KCTC 1621, 20 h. The format is functional.
Another data set concerns Escherichia coli. Nature of the data set: Antibacterial activity against Escherichia coli after 20 hrs by twofold serial broth dilution method. The format is functional.
Data set [4] deals with T1, 3-oxoacyl-[acyl-carrier-protein] synthase 3 (Escherichia coli) (UniProt C3TDZ2).
T1 sequence (whole entry): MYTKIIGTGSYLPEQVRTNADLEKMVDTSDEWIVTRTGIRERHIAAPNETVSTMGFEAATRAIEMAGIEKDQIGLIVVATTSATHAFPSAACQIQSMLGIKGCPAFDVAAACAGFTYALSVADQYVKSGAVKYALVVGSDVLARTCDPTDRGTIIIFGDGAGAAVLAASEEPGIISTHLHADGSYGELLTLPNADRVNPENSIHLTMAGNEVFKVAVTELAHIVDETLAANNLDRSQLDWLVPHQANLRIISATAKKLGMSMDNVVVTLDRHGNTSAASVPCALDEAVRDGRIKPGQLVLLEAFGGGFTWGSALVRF
Kind of data set: Binding affinity to Escherichia coli KAS3 expressed in Escherichia coli BL21 (DE3) by NMR analysis.

The test system of data set [5] is Enterococcus faecalis. Nature of the data set: Antibacterial activity against vancomycin-resistant Enterococcus faecalis clinical isolates after 20 hrs by twofold serial broth dilution method. The format is functional.
Data set [6] concerns HaCaT. Kind of data set: Cytotoxicity against human HaCaT cells assessed as cell morphology at 100 uM after 24 hrs by phase contrast microscopy. The format is cell-based.
In data set [7] the test system is HaCaT. Nature of the data set: Cytotoxicity against human HaCaT cells assessed as cell survival at 100 uM after 24 hrs by MTT assay. The format is cell-based. Background: Formazan colour is commonly taken as a measure of viable cells.
A short description of data set [8]: Solubility of the compound. The format is physicochemical.
Data set [9] in a line: Cytotoxicity against human HaCaT cells assessed as cell survival at 16 uM after 24 hrs by MTT assay. The format is cell-based. The settings on record: read-out: Survival.

Structures are written as SMILES. Converted amounts (≈) assume the structure as drawn.

With `C=C/C(C)=C/[C@@]1(C)SC(=O)C(C)=C1O` [THIOLACTOMYCIN], the MIC (usually the lowest concentration found to suppress growth) worked out at 128 µM (≈ 26.9 µg/mL) against Staphylococcus aureus [1]; 256 µM (≈ 53.8 µg/mL) against Enterococcus faecalis [2]; 256 µM (≈ 53.8 µg/mL) in the data set on Staphylococcus aureus [3]; 128 µM (≈ 26.9 µg/mL) against Escherichia coli; 128 µM (≈ 26.9 µg/mL) with Enterococcus faecalis [5]. The compound also gave a K in data set [4] of 1.18 ×10⁴ /M.

With `O=c1c(O)c(-c2ccc(O)cc2)oc2ccc(O)cc12`, the minimal inhibitory concentration (MIC) against Staphylococcus aureus [1], in the data set with Enterococcus faecalis [2], against Staphylococcus aureus [3], against Escherichia coli and against Enterococcus faecalis [5] was > 1020 µM each time. The compound further displayed a K in data set [4] of 6.22 ×10⁶ /M.

For the compound `O=C(CCc1ccc(O)cc1)c1c(O)cc(O)cc1O` [PHLORETIN], the MIC against Staphylococcus aureus [1] was found to be 16 µM (≈ 4.39 µg/mL); against Enterococcus faecalis [2], 128 µM (≈ 35.1 µg/mL); in the data set on Staphylococcus aureus [3], 32 µM (≈ 8.78 µg/mL); against Escherichia coli, 128 µM (≈ 35.1 µg/mL); in the data set on Enterococcus faecalis [5] it was 128 µM (≈ 35.1 µg/mL). For the same compound, in data set [4], the K worked out at 2.38 ×10⁷ /M. The Activity entry with HaCaT [6] and in the data set on HaCaT [7] was “Not Active” in each case.

On to `COc1ccc(-c2coc3cc(O[C@@H]4O[C@H](CO)[C@@H](O)[C@@H](O)[C@@H]4O)cc(O)c3c2=O)cc1`, for which the MIC against Staphylococcus aureus [1], with Enterococcus faecalis [2], in the data set with Staphylococcus aureus [3], in the data set with Escherichia coli and with Enterococcus faecalis [5] was > 1020 µM throughout. Besides, the K in [4] stood at 5.6 ×10⁶ /M.

`O=c1c(O)c(-c2ccccc2)oc2ccc(O)cc12`: the MIC was 16 µM (≈ 4.07 µg/mL) against Staphylococcus aureus [1]; 128 µM (≈ 32.5 µg/mL) against Enterococcus faecalis [2]; 16 µM (≈ 4.07 µg/mL) with Staphylococcus aureus [3]; > 1020 µM with Escherichia coli; 256 µM (≈ 65.1 µg/mL) against Enterococcus faecalis [5]. In data set [8], the solubility result was “Insoluble”. Also, in data set [4], the K was 1.32 ×10⁴ /M. For the same compound, the viability at 24 h, 16 µM in data set [9] was determined as 90%.

For the origin of these results see ChEMBL document CHEMBL1152427, “Antimicrobial natural products as beta-ketoacyl-acyl carrier protein synthase III inhibitors” (Bioorg Med Chem, 2009).
